Assay results published in PMC4196226 (mBio, 2014).
Values after ≈ are worked out from the molar mass of the structure shown.

Key:
Type in all cases: cell-based
P. aeruginosa = experiment: microbe, parasite or virus in culture; conditions: Pseudomonas aeruginosa
K. pneumoniae = experiment: microbe, parasite or virus in culture; conditions: Klebsiella pneumoniae
A. baumannii = experiment: MIC assay; conditions: Acinetobacter baumannii
B. cepacia = experiment: MIC assay; conditions: Burkholderia cepacia
S. maltophilia = experiment: MIC assay; conditions: Stenotrophomonas maltophilia

C[C@@H](O)[C@H]1C(=O)N2C(C(=O)O)=C(S[C@@H]3CN[C@H](C(=O)N(C)C)C3)[C@H](C)[C@H]12 [MPM, meropenem]
MIC90 (P. aeruginosa): > 64 µg/mL
MIC90 (K. pneumoniae): 32 µg/mL (≈ 83.4 µM)
MIC90 (A. baumannii): 32 µg/mL (≈ 83.4 µM)
MIC90 (B. cepacia): 8 µg/mL (≈ 20.9 µM)
MIC90 (S. maltophilia): > 64 µg/mL
